As a reminder, the IC50 is the midpoint of a concentration-inhibition curve.

The results in this text go back to patent US9725445B2, “Cycloalkyl nitrile pyrazolo pyridones as Janus kinase inhibitors” (Merck Sharp & Dohme Corp., priority 2013, dated 2017).

For one assay, the target named is JAK1 (Homo sapiens (Human), UniProt P23458). The assay is described as follows: Jak biochemical HTRF assay, JAK1. Conditions: HTRF biochemical assay, recombinant GST-tagged catalytic domain; read-out: JAK1 IC50. A general note: Time-resolved FRET reads energy transfer from a long-lived donor to a nearby acceptor.
A further assay deals with JAK2 (Homo sapiens (Human), UniProt O60674). The assay is described as follows: Jak biochemical HTRF assay, JAK2. As to conditions: HTRF biochemical assay, recombinant GST-tagged catalytic domain; read-out: JAK2 IC50.

Structures can show the parent of a compound that is named as a salt.

Chain of JAK2 (O60674 849-1124): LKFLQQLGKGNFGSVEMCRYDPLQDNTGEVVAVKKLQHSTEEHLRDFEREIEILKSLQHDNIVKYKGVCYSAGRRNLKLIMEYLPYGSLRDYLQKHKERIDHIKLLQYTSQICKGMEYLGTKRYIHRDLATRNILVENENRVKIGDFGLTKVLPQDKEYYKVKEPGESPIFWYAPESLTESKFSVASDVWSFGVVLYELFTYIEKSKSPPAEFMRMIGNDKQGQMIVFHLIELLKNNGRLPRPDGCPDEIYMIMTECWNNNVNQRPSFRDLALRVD
Chain of JAK1 (P23458 875-1153): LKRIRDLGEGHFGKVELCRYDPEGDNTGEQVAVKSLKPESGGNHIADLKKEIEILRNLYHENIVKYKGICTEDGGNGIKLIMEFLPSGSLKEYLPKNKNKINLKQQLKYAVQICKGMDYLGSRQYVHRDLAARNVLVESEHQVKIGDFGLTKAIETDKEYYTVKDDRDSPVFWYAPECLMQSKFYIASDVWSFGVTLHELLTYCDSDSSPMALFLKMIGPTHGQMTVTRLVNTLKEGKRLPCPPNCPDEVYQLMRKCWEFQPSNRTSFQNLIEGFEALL

For the compound `CC(C)(C)OC(=O)[C@H]1CC[C@@H](N2Cc3cc(Nc4nn([C@H]5CCCC[C@@H]5C#N)c5cc[nH]c(=O)c45)ccc3S2(=O)=O)CC1` [Example 15-43, (1S,4S)-tert-butyl 4-(5-((1-((1S,2S)-2-cyanocyclohexyl)-4-oxo-4,5-dihydro-1H-pyrazolo[4,3-c]pyridin-3-yl)amino)-1,1-dioxidobenzo[d]isothiazol-2(3H)-yl)cyclohexanecarboxylate], the IC50 at JAK1 is 0.22 nM; at JAK2, 1.2 nM.

Regarding `N#C[C@H]1CCCC[C@@H]1n1nc(Nc2ccc3c(c2)CN(C2CCOCC2)C3=O)c2c(=O)[nH]ccc21` [Example 15-59, (1S,2S)-2-(4-oxo-3-{[1-oxo-2-(tetrahydro-2H-pyran-4-yl)-2,3-dihydro-1H-isoindol-5-yl]amino}-4,5-dihydro-1H-pyrazolo[4,3-c]pyridin-1-yl)cyclohexanecarbonitrile], the results for the IC50 on JAK1 and on JAK2 were 0.078 nM and 0.41 nM, respectively.

On to `N#C[C@H]1CCCC[C@@H]1n1nc(Nc2ccc3c(c2)CN(C2CCSCC2)C3=O)c2c(=O)[nH]ccc21` [Example 15-60, (1S,2S)-2-(4-oxo-3-{[1-oxo-2-(tetrahydro-2H-thiopyran-4-yl)-2,3-dihydro-1H-isoindol-5-yl]amino}-4,5-dihydro-1H-pyrazolo[4,3-c]pyridin-1-yl)cyclohexanecarbonitrile], for which the IC50 on JAK1 is 0.11 nM; at JAK2, 0.51 nM.

On to `CC1(N2Cc3cc(Nc4nn([C@H]5CCCC[C@@H]5C#N)c5cc[nH]c(=O)c45)ccc3C2=O)CCOCC1` [Example 15-63, (1S,2S)-2-(3-{[2-(4-methyltetrahydro-2H-pyran-4-yl)-1-oxo-2,3-dihydro-1H-isoindol-5-yl]amino}-4-oxo-4,5-dihydro-1H-pyrazolo[4,3-c]pyridin-1-yl)cyclohexanecarbonitrile], for which the IC50 at JAK1 is 0.062 nM; on JAK2, 0.14 nM.

Take `CC1(N2Cc3cc(Nc4nn([C@H]5CCCC[C@@H]5C#N)c5cc[nH]c(=O)c45)ccc3S2(=O)=O)CCOCC1` [Example 15-64, (1S,2S)-2-(3-{[2-(4-methyltetrahydro-2H-pyran-4-yl)-1,1-dioxido-2,3-dihydro-1,2-benzisothiazol-5-yl]amino}-4-oxo-4,5-dihydro-1H-pyrazolo[4,3-c]pyridin-1-yl)cyclohexanecarbonitrile]: the IC50 on JAK1 stood at 0.069 nM; on JAK2, 0.17 nM.

As to `CC1(N2Cc3cc(Nc4nn([C@H]5CCCC[C@@H]5C#N)c5cc[nH]c(=O)c45)ccc3S2(=O)=O)CCC(F)(F)CC1` [Example 15-73, (1S,2S)-2-(3-{[2-(4,4-difluoro-1-methylcyclohexyl)-1,1-dioxido-2,3-dihydro-1,2-benzisothiazol-5-yl]amino}-4-oxo-4,5-dihydro-1H-pyrazolo[4,3-c]pyridin-1-yl)cyclohexanecarbonitrile], the values for the IC50 at JAK1 and on JAK2 were 0.28 nM and 0.55 nM, respectively.

Consider `N#C[C@H]1CCCC[C@@H]1n1nc(Nc2ccc(C(=O)O)cc2)c2c(=O)[nH]ccc21` [Example 16-1, 4-((1-((1S,2S)-2-Cyanocyclohexyl)-4-oxo-4,5-dihydro-1H-pyrazolo[4,3-c]pyridin-3-yl)amino)benzoic acid, HCl], for which the IC50 was 0.16 nM at JAK1 and 3.4 nM on JAK2.

Take `N#C[C@H]1CCCC[C@@H]1n1nc(Nc2ccc3c(c2)CN([C@H]2CC[C@@H](C(=O)O)CC2)S3(=O)=O)c2c(=O)[nH]ccc21` [Example 16-2, (1S,4S)-4-(5-((1-((1S,2S)-2-cyanocyclohexyl)-4-oxo-4,5-dihydro-1H-pyrazolo[4,3-c]pyridin-3-yl)amino)-1,1-dioxidobenzo[d]isothiazol-2(3H)-yl)cyclohexanecarboxylic acid]: the IC50 on JAK1 turned out to be 0.069 nM; on JAK2, 0.47 nM.

In the case of `N#C[C@H]1CCCC[C@@H]1n1nc(Nc2ccc3c(c2)CN([C@H]2CC[C@H](C(=O)O)CC2)S3(=O)=O)c2c(=O)[nH]ccc21` [Example 16-3, (1R,4R)-4-(5-((1-((1S,2S)-2-cyanocyclohexyl)-4-oxo-4,5-dihydro-1H-pyrazolo[4,3-c]pyridin-3-yl)amino)-1,1-dioxidobenzo[d]isothiazol-2(3H)-yl)cyclohexanecarboxylic acid], the IC50 amounted to 0.059 nM on JAK1 and 0.14 nM on JAK2.

With `CC1c2ccc(Nc3nn([C@H]4CCCC[C@@H]4C#N)c4cc[nH]c(=O)c34)cc2CN1C(=O)OC(C)(C)C` (stereo partly drawn) [Example 18-1, tert-Butyl 5-((1-((1S,2S)-2-cyanocyclohexyl)-4-oxo-4,5-dihydro-1H-pyrazolo[4,3-c]pyridin-3-yl)amino)-1-methylisoindoline-2-carboxylate], the IC50 on JAK1 amounted to 1.3 nM; on JAK2, 5.4 nM.

For `N#C[C@H]1CCCC[C@@H]1n1nc(Nc2ccc([C@@H]3C[C@H]4CC[C@@H](C3)N4)cc2)c2c(=O)[nH]ccc21` [Example 20-1, (1S,2S)-2-(3-((4-((1R,3S,5S)-8-azabicyclo[3.2.1]octan-3-yl)phenyl)amino)-4-oxo-4,5-dihydro-1H-pyrazolo[4,3-c]pyridin-1-yl)cyclohexanecarbonitrile hydrochloride], the IC50 was determined as 0.38 nM on JAK1 and 0.57 nM at JAK2.

For `N#C[C@H]1CCCC[C@@H]1n1nc(Nc2ccc([C@H]3C[C@H]4CC[C@@H](C3)N4)cc2)c2c(=O)[nH]ccc21` [Example 20-2], the concentration for half-maximal inhibition (IC50) on JAK1 and on JAK2 was 0.39 nM throughout.

With `CC1(C)Cc2cc(Nc3nn([C@H]4CCCC[C@@H]4C#N)c4cc[nH]c(=O)c34)ccc2S1(=O)=O` [Example 21-1, (1S,2S)-2-(3-((2,2-Dimethyl-1,1-dioxido-2,3-dihydrobenzo[b]thiophen-5-yl)amino)-4-oxo-4,5-dihydro-1H-pyrazolo[4,3-c]pyridin-1-yl)cyclohexanecarbonitrile], the half-maximal inhibitory concentration (IC50) was determined as 0.056 nM on JAK1 and 0.28 nM at JAK2.

For the compound `N#C[C@H]1CCCC[C@@H]1n1nc(Nc2ccc3c(c2)CC2(CCCCC2)S3(=O)=O)c2c(=O)[nH]ccc21` [Example 21-2, (1S,2S)-2-(3-((1,1-Dioxido-3H-spiro[benzo[b]thiophene-2,1′-cyclohexan]-5-yl)amino)-4-oxo-4,5-dihydro-1H-pyrazolo[4,3-c]pyridin-1-yl)cyclohexanecarbonitrile], the IC50 came to 0.12 nM on JAK1 and 0.38 nM at JAK2.

As to `N#C[C@H]1CCCC[C@@H]1n1nc(Nc2ccc3c(c2)CC2(CCOCC2)S3(=O)=O)c2c(=O)[nH]ccc21` [Example 21-3, (1S,2S)-2-{3-[(1,1-dioxido-2′,3′,5′,6′-tetrahydro-3H-spiro[1-benzothiophene-2,4′-pyran]-5-yl)amino]-4-oxo-4,5-dihydro-1H-pyrazolo[4,3-c]pyridin-1-yl}cyclohexanecarbonitrile], the half-maximal inhibitory concentration (IC50) is 0.069 nM on JAK1 and 0.18 nM at JAK2.
